Experimental data from patent publication US20260022142A1, “MACROCYCLIC IMMUNOMODULATORS” (Bristol-Myers Squibb Company, priority 2022, published 2026).
Bridge positions count the residues as written; N and C are the ends. Square brackets hold non-standard residues; d marks the D form. Peptide text beside a SMILES is read from it. * marks the point of attachment. Bip = N[C@@H](Cc1ccc(-c2ccccc2)cc1)C(=O)O; Phe(3-Me) = Cc1cccc(C[C@H](N)C(=O)O)c1; Cha = N[C@@H](CC1CCCCC1)C(=O)O; Cit = NC(=O)NCCC[C@H](N)C(=O)O; Carboxymethyl = O=C(O)C*; Orn = NCCC[C@H](N)C(=O)O; Aun = NCCCCCCCCCCC(=O)O; Dab = NCC[C@H](N)C(=O)O; Dap = NC[C@H](N)C(=O)O; AEEA = NCCOCCOCC(=O)O

Target: T1, PD-1/PD-L1 interaction (PE-labeled human PD-L1-Ig binding to Jurkat cell line over-expressing human PD-1) (Homo sapiens, UniProt Q15116)
T1 construct: expressed in transfected cells; host or cells: Jurkat
T1 sequence (Q15116 25-288): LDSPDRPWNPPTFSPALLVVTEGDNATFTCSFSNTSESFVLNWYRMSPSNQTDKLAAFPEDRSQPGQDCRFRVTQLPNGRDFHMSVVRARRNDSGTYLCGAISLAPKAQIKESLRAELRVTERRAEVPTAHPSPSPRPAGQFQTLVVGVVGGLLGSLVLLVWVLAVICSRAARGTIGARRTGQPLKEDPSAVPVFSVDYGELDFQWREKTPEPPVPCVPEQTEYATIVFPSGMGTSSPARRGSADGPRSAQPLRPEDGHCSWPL
Assay: Jurkat-PD-1 Cell Binding High-Content Screening Assay (CBA)
Format: cell-based
Settings: Jurkat cell line over-expressing human PD-1; PE-labeled PD-L1-Ig 20 nM final; read-out: Jurkat hPD1-PDL1 IC50
Summary of the method: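 Jurkat-hPD-1 cells, DMEM/10% FCS; cpd 2 h 37° C; PE-PD-L1-Ig 20 nM final, 1 h; 4% PFA fix + Hoechst 33342, 3× dPBS wash; high-content imaging read-out.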

Row | Structure (SMILES) | IC50
1 | CC[C@H](C)[C@@H]1NC(=O)[C@H](Cc2ccc(-c3ccccc3)cc2)NC(=O)[C@H](C(C)C)NC(=O)[C@H](Cc2cccc(C)c2)NC(=O)[C@H](CC(=O)O)NC(=O)[C@H](Cc2ccc(OCC(=O)O)cc2)NC(=O)[C@H](CN)NC(=O)CSC[C@@H](C(=O)N[C@@H](CCCCN)C(=O)NCCOCCOCC(=O)NCCCCCCCCCCC(=O)O)NC(=O)[C@H](CN)NC(=O)[C@H](C(C)C)NC(=O)[C@H](CC2CCCCC2)NC(=O)[C@H](CCN)NC(=O)[C@@H](CC(C)C)NC(=O)[C@H](CCCN)NC1=O [Compound 2650] ({CH2CO}-[Dap]Y(Carboxymethyl)D[Phe(3-Me)]V[Bip]I[Orn][dL][Dab][Cha]V[Dap]CK[AEEA][Aun]-OH; thioether N-14) | 11.5 nM
2 | Cc1cccc(C[C@@H]2NC(=O)[C@H](CC(=O)O)NC(=O)[C@H](Cc3ccc(OCC(=O)O)cc3)NC(=O)[C@H](CN)NC(=O)CSC[C@@H](C(=O)N[C@@H](CCCCN)C(=O)NCCOCCOCC(=O)NCCCCCCCCCCC(=O)O)NC(=O)[C@H](CCCN)NC(=O)[C@H](C(C)C)NC(=O)[C@H](CC3CCCCC3)NC(=O)[C@H](CCN)NC(=O)[C@@H](CC(C)C)NC(=O)[C@H](CCCN)NC(=O)[C@H](CCCNC(N)=O)NC(=O)[C@H](Cc3ccc(-c4ccccc4)cc3)NC(=O)[C@H](C(C)C)NC2=O)c1 [Compound 2651] ({CH2CO}-[Dap]Y(Carboxymethyl)D[Phe(3-Me)]V[Bip][Cit][Orn][dL][Dab][Cha]V[Orn]CK[AEEA][Aun]-OH; thioether N-14) | 9.7 nM
3 | CC[C@H](C)[C@@H]1NC(=O)[C@H](Cc2ccc(-c3ccccc3)cc2)NC(=O)[C@H](C(C)C)NC(=O)[C@H](Cc2cccc(C)c2)NC(=O)[C@H](CC(=O)O)NC(=O)[C@H](Cc2ccc(OCC(=O)O)cc2)NC(=O)[C@H](CN)NC(=O)CSC[C@@H](C(=O)N[C@@H](CCCCN)C(=O)NCCOCCOCC(=O)NCCCCCCCCCCC(=O)O)NC(=O)[C@H](CCCN)NC(=O)[C@H](C(C)C)NC(=O)[C@H](CC2CCCCC2)NC(=O)[C@H](CCN)NC(=O)[C@@H](CC(C)C)NC(=O)[C@H](CCCN)NC1=O [Compound 2652] ({CH2CO}-[Dap]Y(Carboxymethyl)D[Phe(3-Me)]V[Bip]I[Orn][dL][Dab][Cha]V[Orn]CK[AEEA][Aun]-OH; thioether N-14) | 6.1 nM
4 | Cc1cccc(C[C@@H]2NC(=O)[C@H](CC(=O)O)NC(=O)[C@H](Cc3ccc(OCC(=O)O)cc3)NC(=O)[C@H](CN)NC(=O)CSC[C@@H](C(=O)N[C@@H](CCCCN)C(=O)NCCOCCOCC(=O)NCCCCCCCCCCC(=O)O)NC(=O)[C@H](CCCNC(=N)N)NC(=O)[C@H](C(C)C)NC(=O)[C@H](CC3CCCCC3)NC(=O)[C@H](CCN)NC(=O)[C@@H](CC(C)C)NC(=O)[C@H](CCCN)NC(=O)[C@H](CCCNC(N)=O)NC(=O)[C@H](Cc3ccc(-c4ccccc4)cc3)NC(=O)[C@H](C(C)C)NC2=O)c1 [Compound 2653] ({CH2CO}-[Dap]Y(Carboxymethyl)D[Phe(3-Me)]V[Bip][Cit][Orn][dL][Dab][Cha]VRCK[AEEA][Aun]-OH; thioether N-14) | 11.2 nM
5 | CC[C@H](C)[C@@H]1NC(=O)[C@H](Cc2ccc(-c3ccccc3)cc2)NC(=O)[C@H](C(C)C)NC(=O)[C@H](Cc2cccc(C)c2)NC(=O)[C@H](CC(=O)O)NC(=O)[C@H](Cc2ccc(OCC(=O)O)cc2)NC(=O)[C@H](CN)NC(=O)CSC[C@@H](C(=O)N[C@@H](CCCCN)C(=O)NCCOCCOCC(=O)NCCCCCCCCCCC(=O)O)NC(=O)[C@H](CCCNC(=N)N)NC(=O)[C@H](C(C)C)NC(=O)[C@H](CC2CCCCC2)NC(=O)[C@H](CCN)NC(=O)[C@@H](CC(C)C)NC(=O)[C@H](CCCN)NC1=O [Compound 2654] ({CH2CO}-[Dap]Y(Carboxymethyl)D[Phe(3-Me)]V[Bip]I[Orn][dL][Dab][Cha]VRCK[AEEA][Aun]-OH; thioether N-14) | 5.2 nM
6 | CC(C)C[C@H]1NC(=O)[C@H](CCCN)NC(=O)[C@H](CCCNC(N)=O)NC(=O)[C@H](Cc2ccc(-c3ccccc3)cc2)NC(=O)[C@H](C(C)C)NC(=O)[C@H](Cc2c[nH]c3ccccc23)NC(=O)[C@H](CC(=O)O)NC(=O)[C@H](Cc2ccc(OCC(=O)O)cc2)NC(=O)[C@H](Cc2ccc(OCC(=O)O)cc2)NC(=O)CSC[C@@H](C(=O)NCCOCCOCC(=O)N[C@@H](CCN)C(=O)NCCCCCCCCCCC(=O)O)NC(=O)[C@H](CCCNC(=N)N)NC(=O)[C@H](C(C)C)NC(=O)[C@H](CC2CCCCC2)NC(=O)[C@H](CCN)NC1=O [Compound 2655] ({CH2CO}-Y(Carboxymethyl)Y(Carboxymethyl)DWV[Bip][Cit][Orn][dL][Dab][Cha]VRC[AEEA][Dab][Aun]-OH; thioether N-14) | 9.4 nM
7 | CC[C@H](C)[C@@H]1NC(=O)[C@H](Cc2ccc(-c3ccccc3)cc2)NC(=O)[C@H](C(C)C)NC(=O)[C@H](Cc2c[nH]c3ccccc23)NC(=O)[C@H](CC(=O)O)NC(=O)[C@H](Cc2ccc(OCC(=O)O)cc2)NC(=O)[C@H](Cc2ccc(OCC(=O)O)cc2)NC(=O)CSC[C@@H](C(=O)NCCOCCOCC(=O)N[C@@H](CCN)C(=O)NCCCCCCCCCCC(=O)O)NC(=O)[C@H](CCCNC(=N)N)NC(=O)[C@H](C(C)C)NC(=O)[C@H](CC2CCCCC2)NC(=O)[C@H](CCN)NC(=O)[C@@H](CC(C)C)NC(=O)[C@H](CCCN)NC1=O [Compound 2656] ({CH2CO}-Y(Carboxymethyl)Y(Carboxymethyl)DWV[Bip]I[Orn][dL][Dab][Cha]VRC[AEEA][Dab][Aun]-OH; thioether N-14) | 8.2 nM
8 | CC(C)C[C@H]1NC(=O)[C@H](CCCN)NC(=O)[C@H](CCC(=O)O)NC(=O)[C@H](Cc2ccc(-c3ccccc3)cc2)NC(=O)[C@H](C(C)C)NC(=O)[C@H](Cc2c[nH]c3ccccc23)NC(=O)[C@H](CC(=O)O)NC(=O)[C@H](Cc2ccc(OCC(=O)O)cc2)NC(=O)[C@H](CN)NC(=O)CSC[C@@H](C(=O)NCCOCCOCC(=O)N[C@@H](CCN)C(=O)NCCCCCCCCCCC(=O)O)NC(=O)[C@H](CCCCN)NC(=O)[C@H](C(C)C)NC(=O)[C@H](CC2CCCCC2)NC(=O)[C@H](CCN)NC1=O [Compound 2657] ({CH2CO}-[Dap]Y(Carboxymethyl)DWV[Bip]E[Orn][dL][Dab][Cha]VKC[AEEA][Dab][Aun]-OH; thioether N-14) | 14.4 nM
9 | Cc1cccc(C[C@@H]2NC(=O)[C@H](CC(=O)O)NC(=O)[C@H](Cc3ccc(OCC(=O)O)cc3)NC(=O)[C@H](CN)NC(=O)CSC[C@@H](C(=O)NCCOCCOCC(=O)N[C@@H](CCN)C(=O)NCCCCCCCCCCC(=O)O)NC(=O)[C@H](CN)NC(=O)[C@H](C(C)C)NC(=O)[C@H](CC3CCCCC3)NC(=O)[C@H](CCN)NC(=O)[C@@H](CC(C)C)NC(=O)[C@H](CCCN)NC(=O)[C@H](CCC(=O)O)NC(=O)[C@H](Cc3ccc(-c4ccccc4)cc3)NC(=O)[C@H](C(C)C)NC2=O)c1 [Compound 2658] ({CH2CO}-[Dap]Y(Carboxymethyl)D[Phe(3-Me)]V[Bip]E[Orn][dL][Dab][Cha]V[Dap]C[AEEA][Dab][Aun]-OH; thioether N-14) | 18 nM
10 | Cc1cccc(C[C@@H]2NC(=O)[C@H](CC(=O)O)NC(=O)[C@H](Cc3ccc(OCC(=O)O)cc3)NC(=O)[C@H](CN)NC(=O)CSC[C@@H](C(=O)NCCOCCOCC(=O)N[C@@H](CCN)C(=O)NCCCCCCCCCCC(=O)O)NC(=O)[C@H](CCCN)NC(=O)[C@H](C(C)C)NC(=O)[C@H](CC3CCCCC3)NC(=O)[C@H](CCN)NC(=O)[C@@H](CC(C)C)NC(=O)[C@H](CCCN)NC(=O)[C@H](CCC(=O)O)NC(=O)[C@H](Cc3ccc(-c4ccccc4)cc3)NC(=O)[C@H](C(C)C)NC2=O)c1 [Compound 2659] ({CH2CO}-[Dap]Y(Carboxymethyl)D[Phe(3-Me)]V[Bip]E[Orn][dL][Dab][Cha]V[Orn]C[AEEA][Dab][Aun]-OH; thioether N-14) | 11.5 nM
11 | CC(C)C[C@H]1NC(=O)[C@H](CCCN)NC(=O)[C@H](CCC(=O)O)NC(=O)[C@H](Cc2ccc(-c3ccccc3)cc2)NC(=O)[C@H](C(C)C)NC(=O)[C@H](Cc2c[nH]c3ccccc23)NC(=O)[C@H](CC(=O)O)NC(=O)[C@H](Cc2ccc(OCC(=O)O)cc2)NC(=O)[C@H](CN)NC(=O)CSC[C@@H](C(=O)N[C@@H](CCN)C(=O)NCCOCCOCC(=O)NCCCCCCCCCCC(=O)O)NC(=O)[C@H](CCCCN)NC(=O)[C@H](C(C)C)NC(=O)[C@H](CC2CCCCC2)NC(=O)[C@H](CCN)NC1=O [Compound 2660] ({CH2CO}-[Dap]Y(Carboxymethyl)DWV[Bip]E[Orn][dL][Dab][Cha]VKC[Dab][AEEA][Aun]-OH; thioether N-14) | 11.4 nM
12 | Cc1cccc(C[C@@H]2NC(=O)[C@H](CC(=O)O)NC(=O)[C@H](Cc3ccc(OCC(=O)O)cc3)NC(=O)[C@H](CN)NC(=O)CSC[C@@H](C(=O)N[C@@H](CCN)C(=O)NCCOCCOCC(=O)NCCCCCCCCCCC(=O)O)NC(=O)[C@H](CN)NC(=O)[C@H](C(C)C)NC(=O)[C@H](CC3CCCCC3)NC(=O)[C@H](CCN)NC(=O)[C@@H](CC(C)C)NC(=O)[C@H](CCCN)NC(=O)[C@H](CCC(=O)O)NC(=O)[C@H](Cc3ccc(-c4ccccc4)cc3)NC(=O)[C@H](C(C)C)NC2=O)c1 [Compound 2661] ({CH2CO}-[Dap]Y(Carboxymethyl)D[Phe(3-Me)]V[Bip]E[Orn][dL][Dab][Cha]V[Dap]C[Dab][AEEA][Aun]-OH; thioether N-14) | 10.9 nM
13 | Cc1cccc(C[C@@H]2NC(=O)[C@H](CC(=O)O)NC(=O)[C@H](Cc3ccc(OCC(=O)O)cc3)NC(=O)[C@H](CN)NC(=O)CSC[C@@H](C(=O)N[C@@H](CCN)C(=O)NCCOCCOCC(=O)NCCCCCCCCCCC(=O)O)NC(=O)[C@H](CCCNC(=N)N)NC(=O)[C@H](C(C)C)NC(=O)[C@H](CC3CCCCC3)NC(=O)[C@H](CCN)NC(=O)[C@@H](CC(C)C)NC(=O)[C@H](CCCN)NC(=O)[C@H](CCC(=O)O)NC(=O)[C@H](Cc3ccc(-c4ccccc4)cc3)NC(=O)[C@H](C(C)C)NC2=O)c1 [Compound 2662] ({CH2CO}-[Dap]Y(Carboxymethyl)D[Phe(3-Me)]V[Bip]E[Orn][dL][Dab][Cha]VRC[Dab][AEEA][Aun]-OH; thioether N-14) | 11 nM
